Data: patent publication US20060024337A1, “Process for dissolving lipophilic compounds in aqueous solution with amphiphilic block copolymers, and cosmetic composition” (priority 2002, published 2006)
Values after ≈ are worked out from the molar mass of the structure shown.

Key:
[1] = Dissolving DHEA in water with amphiphilic block copolymers (film hydration, centrifugation, HPLC assay of supernatant); assay type: physicochemical; settings: 25 °C, thermodynamic from solid, no polymer ("natural" solubility)
Description: (§1) The measurement is performed by UV spectrometry or HPLC on an aqueous solution, prepared beforehand, of from 20 to 80° C. for 2 hours, followed by cooling to 25° C. The assay is performed 24 hours after this preparation on the supernatant obtained after centrifuging the suspension to remove all crystals, or on the pellet in the case of solubilization of oily molecules, the centrifugation resulting in creaming of the portion that is not encapsulated in the micelles.
(§2) The solubility gain is calculated relative to the “natural” solubility of the lipophilic compound in water.

[2] = Dissolving Parsol 1789 in water with amphiphilic block copolymers (film hydration, centrifugation, HPLC assay of supernatant); assay type: physicochemical; settings: 25 °C, thermodynamic from solid, no polymer ("natural" solubility)
Description: as §1
The supernatant, which should not contain any crystals that may be identified using an optical microscope in polarized light, is taken up and then assayed by HPLC.
as §2

Compound | solubility at 24 h [1] | solubility at 24 h [2]
C[C@]12CC[C@H](O)CC1=CC[C@@H]1[C@@H]2CC[C@]2(C)C(=O)CC[C@@H]12 [DHEA, dehydroepiandrosterone] | 1 µg/mL (≈ 3.47 µM) | 
COc1ccc(C(=O)CC(=O)c2ccc(C(C)(C)C)cc2)cc1 [Parsol 1789, 4-(tert-butyl)-4′-methoxydibenzoylmethane] |  | 1 µg/mL (≈ 3.22 µM)
